Measurements from patent publication US9493464B2, “Wee1 degradation inhibitors” (The Scripps Research Institute, priority 2012, dated 2016).
Where “and” joins values, the source holds several entries; their conditions need not be identical. Equal values may be shown once.

How the values were obtained:
FLT3 = biological target: T1, FLT3 (Homo sapiens, UniProt P36888); experiment: In vitro kinase assay, FLT3 (Reaction Biology Corporation); type: biochemical; details: 10 μM ATP; read-out: FLT3 IC50
T1 construct: Reaction Biology Corporation (contract assay)
T1 sequence (P36888 27-993): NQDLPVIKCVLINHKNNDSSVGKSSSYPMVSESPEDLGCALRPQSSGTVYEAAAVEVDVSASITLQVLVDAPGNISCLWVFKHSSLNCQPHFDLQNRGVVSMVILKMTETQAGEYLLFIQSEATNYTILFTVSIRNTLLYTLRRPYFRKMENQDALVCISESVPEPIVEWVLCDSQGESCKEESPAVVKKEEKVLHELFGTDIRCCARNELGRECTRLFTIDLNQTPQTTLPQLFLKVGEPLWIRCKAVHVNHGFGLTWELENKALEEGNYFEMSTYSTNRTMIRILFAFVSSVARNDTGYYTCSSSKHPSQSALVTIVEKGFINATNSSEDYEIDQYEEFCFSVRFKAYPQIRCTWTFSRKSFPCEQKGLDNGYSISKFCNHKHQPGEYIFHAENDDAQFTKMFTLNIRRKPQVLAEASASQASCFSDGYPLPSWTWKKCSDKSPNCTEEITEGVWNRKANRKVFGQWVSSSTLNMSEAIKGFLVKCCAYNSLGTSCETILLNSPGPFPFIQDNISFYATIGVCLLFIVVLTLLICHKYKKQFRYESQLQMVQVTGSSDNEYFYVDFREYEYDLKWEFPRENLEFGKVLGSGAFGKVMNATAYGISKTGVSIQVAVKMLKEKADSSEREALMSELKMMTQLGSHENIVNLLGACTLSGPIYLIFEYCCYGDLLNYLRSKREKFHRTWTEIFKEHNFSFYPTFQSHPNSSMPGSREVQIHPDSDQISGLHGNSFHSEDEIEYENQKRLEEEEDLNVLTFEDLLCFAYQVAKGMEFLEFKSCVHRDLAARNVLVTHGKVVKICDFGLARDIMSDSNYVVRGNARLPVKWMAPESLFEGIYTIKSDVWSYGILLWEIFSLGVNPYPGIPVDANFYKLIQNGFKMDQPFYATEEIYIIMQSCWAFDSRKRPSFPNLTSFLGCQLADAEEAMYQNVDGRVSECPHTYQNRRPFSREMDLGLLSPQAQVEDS
Procedure: (§1) Compounds were tested in 10-dose IC50 mode with 3-fold serial dilution starting at 50 μM. […] Reactions were carried out at 10 μM ATP. Average and standard deviations of reactions carried out in triplicate are shown.
(§2) In vitro kinase assay to detect CK1 or FLT3 activity: CK1 and FLT3 assays as well as complete kinase profile of 296 kinases was performed by Reaction Biology Corporation. For FLT3 20 μM final Abltide was used, sequence: [[…]]. For CK1 (all isoforms) 20 μM CK1 tide was used, sequence: [KRRRAL[pS]VASLPGL] in a standard kinase assay with ^32P-ATP and purified kinase. Incorporation of ^32P-ATP into the peptide was measured after a filter-binding assay. In-house CK1d inhibition assays were performed using a standard homogenous time-resolved fluorescence resonance energy transfer (TR-FRET) format in 50 mM Hepes, pH 7.0, 2.5 mM MgCl2, 0.1 mg/ml bovine serum albumin, 1 mM DL-dithiothreitol, 0.01% Triton X-100 (all from Sigma-Aldrich). Briefly, the CK1δ substrate (DEKTDDE, containing CK1 consensus sequence; 4 μL of a 500 nM stock solution) is labeled with a small Ulight acceptor dye (PerkinElmer). In the presence of 10 μL of 10 nM CK1δ, the Ulight peptide is phosphorylated at a single amino acid that is specifically recognized by a europium chelate (Eu)-labeled phosphospecific antibody. Assays were performed in the presence of 2 μL of compound at different (measured) concentrations, and reactions were stopped by adding 10 μL of 4 nM Eu-anti-p-Topo-IIa (PerkinElmer) in Lance Detection Buffer (Perkin Elmer). Upon excitation of the Eu-labeled antibody, energy is transferred to the acceptor dye resulting in the emission of detected light at 665 nm.

LKB1 = biological target: T2, LKB1 (Homo sapiens, UniProt Q15831); experiment: In vitro kinase assay, LKB1; type: biochemical
T2 construct: Reaction Biology Corporation (inferred: panel performed there)
T2 sequence (Q15831 1-433): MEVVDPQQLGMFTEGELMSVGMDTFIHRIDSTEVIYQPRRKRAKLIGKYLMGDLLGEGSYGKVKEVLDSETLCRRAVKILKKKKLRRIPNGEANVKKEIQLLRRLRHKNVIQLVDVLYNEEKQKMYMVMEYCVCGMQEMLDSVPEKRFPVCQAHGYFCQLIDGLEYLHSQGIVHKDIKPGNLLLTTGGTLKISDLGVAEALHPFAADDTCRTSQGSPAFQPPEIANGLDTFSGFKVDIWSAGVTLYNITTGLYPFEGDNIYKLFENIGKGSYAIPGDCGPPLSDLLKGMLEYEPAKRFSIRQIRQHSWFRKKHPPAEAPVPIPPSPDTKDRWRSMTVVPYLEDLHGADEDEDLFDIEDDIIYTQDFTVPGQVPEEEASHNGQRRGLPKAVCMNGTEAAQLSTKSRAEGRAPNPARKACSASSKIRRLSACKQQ
T2 sequence (Q7RTN6 1-431 partner): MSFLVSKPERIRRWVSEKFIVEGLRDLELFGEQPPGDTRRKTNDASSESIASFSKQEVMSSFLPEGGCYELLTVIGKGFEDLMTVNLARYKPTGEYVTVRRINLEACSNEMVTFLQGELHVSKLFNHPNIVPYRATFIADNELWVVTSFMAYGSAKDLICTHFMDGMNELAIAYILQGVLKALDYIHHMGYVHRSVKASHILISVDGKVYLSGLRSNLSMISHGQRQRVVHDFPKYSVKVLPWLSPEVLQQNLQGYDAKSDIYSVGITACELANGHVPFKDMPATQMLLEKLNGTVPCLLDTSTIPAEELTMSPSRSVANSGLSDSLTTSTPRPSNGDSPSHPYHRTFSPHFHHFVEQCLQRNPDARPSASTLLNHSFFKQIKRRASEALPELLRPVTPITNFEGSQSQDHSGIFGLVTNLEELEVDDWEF
T2 sequence (Q9Y376 1-341 partner): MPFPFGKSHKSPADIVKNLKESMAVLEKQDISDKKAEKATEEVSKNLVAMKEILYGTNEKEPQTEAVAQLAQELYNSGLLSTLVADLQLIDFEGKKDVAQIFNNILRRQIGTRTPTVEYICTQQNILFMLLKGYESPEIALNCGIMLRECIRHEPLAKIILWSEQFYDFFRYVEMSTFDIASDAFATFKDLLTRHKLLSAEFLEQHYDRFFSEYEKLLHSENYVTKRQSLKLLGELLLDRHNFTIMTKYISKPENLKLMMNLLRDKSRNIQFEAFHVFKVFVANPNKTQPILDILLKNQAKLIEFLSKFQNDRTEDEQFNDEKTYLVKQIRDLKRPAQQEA
Procedure: as §1
as §2, with “Briefly, the CK1δ substrate (DEKTDDE, containing CK1 consensus sequence; 4 μL of a 500 nM stock solution) is labeled with a small Ulight acceptor dye (PerkinElmer). In the presence of 10 μL of 10 nM CK1δ, the Ulight peptide is phosphorylated at a single amino acid that is specifically recognized by a europium chelate (Eu)-labeled phosphospecific antibody.” left out

O=[N+]([O-])c1cccc2[nH]c(CNc3nc(N4CCOCC4)nc4c3ncn4-c3ccsc3)nc12 [SR-1277]
IC50 (FLT3): 305 nM | activity toward LKB1 (LKB1; result in words): inactive

c1ccc2[nH]c(CNc3nc(N4CCOCC4)nc4c3ncn4-c3ccsc3)nc2c1 [SR-653234]
IC50 (FLT3): 161 nM and 100 nM | IC50 (LKB1): 92 nM
